Blank lines part the entries; values can stand above or below the compound they belong to.
Legend:
[1] = system: DG; assay: Validation of the Fos-rtTA system with seizures; assay type: in vivo, mice; details: injection of seizure inducer, doxycycline 2 hours before
Protocol: FIGS. 8a to 8c show the results of validation experiments of the Fos-rtTA system with seizures. FIG. 8a is a schematic illustration of the injected AAV, in which the nuclear target mEmerald (mEmerald-Nuc) was regulated by the TRE3G promoter that were regulated by rtTA3G expressed by the Fos promoter, and the nuclear target mCherry regulated by CaMKIIα was used for an expression control.
Doxycycline was injected 2 hours before seizure induction or contextual fear conditioning (CFC) to successfully label activated cells during each event (FIGS. 8A to 8C and FIGS. 9A to 9D). FIGS. 8a to 8c show the results of validation experiments of the Fos-rtTA system with seizures. FIG. 8a is a schematic illustration of the injected AAV, in which the nuclear target mEmerald (mEmerald-Nuc) was regulated by the TRE3G promoter regulated by rtTA3G expressed by the Fos promoter, and the nuclear target mCherry regulated by CaMKIIα was used as an expression control. […] FIGS. 9a to 9d show the results of the verification experiment of the Fos-rtTA system using CFC. […] FIG. 9b is a diagram showing a timetable of actions used in the experiment.

[2] = molecular target: T1, Abl SH3 peptide (Homo sapiens, UniProt P00519); assay: Binding of Abl SH3 binding peptide to Abl SH3 peptide of post-eGRASP; details: p32 compared with p30
T1 construct: IgG kappa signal peptide (N)
T1 sequence (P00519 with tags, fused parts or gaps): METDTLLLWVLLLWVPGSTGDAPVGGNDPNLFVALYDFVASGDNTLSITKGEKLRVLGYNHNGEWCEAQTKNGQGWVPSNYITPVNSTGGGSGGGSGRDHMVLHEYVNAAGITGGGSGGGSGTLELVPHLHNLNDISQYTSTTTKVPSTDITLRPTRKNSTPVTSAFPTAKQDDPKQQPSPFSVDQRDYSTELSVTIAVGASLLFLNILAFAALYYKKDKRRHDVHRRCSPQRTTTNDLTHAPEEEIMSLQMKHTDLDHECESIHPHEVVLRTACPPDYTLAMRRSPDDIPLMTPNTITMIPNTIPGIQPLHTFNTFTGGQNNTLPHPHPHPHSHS
Protocol: (3) Abl SH3 binding peptide contained in Pre-eGRASP had p30 (APTKPPPLPP) or p32 (SPSYSPPPPP) sequence. p32 was bound more strongly to Abl SH3 peptide of post-eGRASP than p30. Therefore, in this example, a cyan pre-eGRASP designed to be continuously expressed was prepared using p30, and in this example, yellow pre-eGRASP designed to start to be expressed from a specific time point when memory starts to be formed was prepared using p32, thereby matching the balance of cyan fluorescence and yellow fluorescence.

[3] = system: HEK293T cells; assay: GRASP signal at the interface of separately nucleofected HEK293T cells; assay type: cell-based, human; details: pre- and post-constructs transduced into separate HEK293T cells through nucleofection
Excerpt: According to still another embodiment of the present disclosure, the first labeling material or the second labeling material may further comprise a first binding-enhancing site or a second binding-enhancing site, respectively. Specifically, when the first labeling material and the second labeling material are located in close proximity, the first labeling material and the second labeling material are bound to each other to generate a signal. In order to assist the binding, the first labeling material and the second labeling material may further comprise a first binding-enhancing site and a second binding-enhancing site, respectively. The first binding-enhancing site and the second binding-enhancing site may form a binding with each other. Therefore, when the first labeling material and the second labeling material are adjacent to each other, the first binding-enhancing site and the second binding-enhancing site are bound to assist the binding of the first labeling material and the second labeling material.
The upper figure of FIG. 5a is a result when either post-mGRASP or mCherry-binding pre-mGRASP co-expressing mTagBFP2 was transduced into HEK293T cells through nucleofection. […] Peptide p40 (APTYSPPPPP) was bound to a SH3 domain in the post-eGRASP structure to enhance GRASP signals. […]

Compound: C1CCc2nnnn2CC1 [Pentylenetetrazol]
mEmerald-Nuc signal in DG [1]: strong mEmerald-Nuc signal

binding to Abl SH3 peptide, relative [2]: more strongly
Compound: SPSYSPPPPP ((synthetic) p32)

Compound: S72A: Additional S72A mutation in strands 1-10 of the split GFP; SEQ ID NO: 2
GRASP signal at the interface between cells [3]: GRASP signal increases

Source: patent publication US11879895B2, “Intercellular proximity labeling using eGRASP” (Seoul National University R&DB Foundation, priority 2018, dated 2024)
